Data as given in patent US10131652B2, “Pyrimidinyloxy benzene derivatives as herbicides” (E. I. DU PONT DE NEMOURS AND COMPANY, priority 2014, dated 2018).
Read-outs that look alike come from different tables or passages of the source.

Legend:
Assay type in all cases: in vivo
[1] = system: ducksalad (Heteranthera limosa); assay: Test D flooded paddy test plant response; conditions: Flood (flooded paddy test), visual rating on scale 0 to 100 (0 no effect, 100 complete control), 13 to 15 days
Procedure, shortened: (§1)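 Plants at 2-leaf stage in pots flooded 3 cm above soil; compounds applied directly into paddy water, depth kept throughout. After 13-15 days in greenhouse, visual rating against controls on 0-100 scale (100 = complete control).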

[2] = system: rice (Oryza sativa); assay: Test D flooded paddy test plant response; conditions: Flood (flooded paddy test), visual rating on scale 0 to 100 (0 no effect, 100 complete control), 13 to 15 days
Procedure, shortened: as §1

[3] = system: small-flower umbrella sedge (Cyperus difformis); assay: Test D flooded paddy test plant response; conditions: Flood (flooded paddy test), visual rating on scale 0 to 100 (0 no effect, 100 complete control), 13 to 15 days
Procedure, shortened: as §1

[4] = system: barnyardgrass (Echinochloa crus-galli); assay: Test D flooded paddy test plant response; conditions: Flood (flooded paddy test), visual rating on scale 0 to 100 (0 no effect, 100 complete control), 13 to 15 days
Procedure, shortened: as §1

[5] = system: velvetleaf (Abutilon theophrasti); assay: Test F pre-/postemergence plant response; conditions: Abutilon theophrasti, pre-emergence, scale 0 to 100, read-out: Plant response rating, Velvetleaf
Procedure, shortened: (§2)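 Seeds were sown in silt loam soil and sprayed preemergence; separately, plants at the 1- to 4-leaf stage (2 to 18 cm) received postemergence sprays. Test chemicals were in a non-phytotoxic solvent mixture with surfactant. After 14 to 21 days in a greenhouse, injury was visually rated 0 (no effect) to 100 (complete control) against untreated controls.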

[6] = system: yellow nutsedge (Cyperus esculentus); assay: Test F pre-/postemergence plant response; conditions: Cyperus, pre-emergence, scale 0 to 100, read-out: Plant response rating, Nutsedge, Yellow
Procedure, shortened: as §2

[7] = system: ragweed (common ragweed, Ambrosia elatior); assay: Test F pre-/postemergence plant response; conditions: Ambrosia artemisiifolia, scale 0 to 100, read-out: Plant response rating, Ragweed
Procedure, shortened: as §2

[8] = system: kochia (Kochia scoparia); assay: Test F pre-/postemergence plant response; conditions: Bassia scoparia, scale 0 to 100, read-out: Plant response rating, Kochia; for pest or weed control at 16 g/ha: 16 g ai/ha; for pest or weed control at 31 g/ha: 31 g ai/ha; for pest or weed control at 125 g/ha: 125 g ai/ha
Procedure, shortened: as §2

[9] = system: large (Lg) crabgrass (Digitaria sanguinalis); assay: Test F pre-/postemergence plant response; conditions: Digitaria sanguinalis, pre-emergence, scale 0 to 100, read-out: Plant response rating, Crabgrass, Large
Procedure, shortened: as §2

[10] = system: hairy beggarticks (Bidens pilosa); assay: Test F pre-/postemergence plant response; conditions: Bidens pilosa, scale 0 to 100, read-out: Plant response rating, Beggarticks
Procedure, shortened: as §2

[11] = system: barnyardgrass (Echinochloa crus-galli); assay: Test F pre-/postemergence plant response; conditions: Echinochloa crus-galli, scale 0 to 100, read-out: Plant response rating, Barnyardgrass
Procedure, shortened: as §2

[12] = system: nightshade (eastern black nightshade, Solanum ptycanthum); assay: Test F pre-/postemergence plant response; conditions: Solanum, pre-emergence, scale 0 to 100, read-out: Plant response rating, Nightshade
Procedure, shortened: as §2

[13] = system: Italian ryegrass (Lolium multiflorum); assay: Test F pre-/postemergence plant response; conditions: Lolium multiflorum, scale 0 to 100, read-out: Plant response rating, Ryegrass, Italian; for pest or weed control at 16 g/ha: 16 g ai/ha; for pest or weed control at 31 g/ha: 31 g ai/ha; for pest or weed control at 125 g/ha: 125 g ai/ha
Procedure, shortened: as §2

[14] = system: surinam grass (Brachiaria decumbens); assay: Test F pre-/postemergence plant response; conditions: Urochloa decumbens, pre-emergence, scale 0 to 100, read-out: Plant response rating, Surinam Grass
Procedure, shortened: as §2

[15] = system: arrowleaf sida (Sida rhombifolia); assay: Test F pre-/postemergence plant response; conditions: Sida rhombifolia, scale 0 to 100, read-out: Plant response rating, Arrowleaf Sida
Procedure, shortened: as §2

[16] = system: Horseweed; assay: Test F postemergence plant response; conditions: scale 0 to 100
[17] = post-emergence, 16 g ai/ha Postemergence
[18] = post-emergence, 31 g ai/ha Postemergence
[19] = post-emergence, 62 g ai/ha Postemergence
[20] = post-emergence, 125 g ai/ha Postemergence
[21] = pre-emergence, 16 g ai/ha Preemergence
[22] = pre-emergence, 31 g ai/ha Preemergence
[23] = pre-emergence, 125 g ai/ha Preemergence
[24] = post-emergence, 62 g ai/ha, Postemergence
[25] = pre-emergence, 62 g ai/ha Preemergence

## Fc1cccc(Oc2ncc(Cl)cn2)c1-c1cc(C(F)F)no1 [Compound 144, 5-chloro-2-[2-[3-(difluoromethyl)-5-isoxazolyl]-3-fluorophenoxy]pyrimidine]
[1]; 31 g ai/ha
  Plant response rating, Ducksalad: 75
[1]; 62 g ai/ha
  Plant response rating, Ducksalad: 85
[1]; 125 g ai/ha
  Plant response rating, Ducksalad: 90
[1]; 250 g ai/ha
  Plant response rating, Ducksalad: 100
[2]; 31 g ai/ha
  Plant response rating, Rice: 0
[2]; 62 g ai/ha
  Plant response rating, Rice: 15
[2]; 125 g ai/ha
  Plant response rating, Rice: 25
[2]; 250 g ai/ha
  Plant response rating, Rice: 40
[3]; 31 g ai/ha
  Plant response rating, Sedge, Umbrella: 65
[3]; 62 g ai/ha
  Plant response rating, Sedge, Umbrella: 80
[3]; 125 g ai/ha
  Plant response rating, Sedge, Umbrella: 95
[3]; 250 g ai/ha
  Plant response rating, Sedge, Umbrella: 95
[4]; 31 g ai/ha
  Plant response rating, Barnyardgrass: 0
[4]; 62 g ai/ha
  Plant response rating, Barnyardgrass: 0
[4]; 125 g ai/ha
  Plant response rating, Barnyardgrass: 15
[4]; 250 g ai/ha
  Plant response rating, Barnyardgrass: 35
[5]; 16 g ai/ha Preemergence
  pest or weed control at 16 g/ha: 80%
[5]; 31 g ai/ha Preemergence
  pest or weed control at 31 g/ha: 100%
[5]; 125 g ai/ha Preemergence
  pest or weed control at 125 g/ha: 100%
[5]; Preemergence
  pest or weed control at 62 g/ha: 100%
[6]; 16 g ai/ha Preemergence
  pest or weed control at 16 g/ha: 0%
[6]; 31 g ai/ha Preemergence
  pest or weed control at 31 g/ha: 0%
[6]; 125 g ai/ha Preemergence
  pest or weed control at 125 g/ha: 0%
[6]; Preemergence
  pest or weed control at 62 g/ha: 0%
[7]; [17]
  pest or weed control at 16 g/ha: 50%
[7]; [18]
  pest or weed control at 31 g/ha: 50%
[7]; [19]
  pest or weed control at 62 g/ha: 85%
[7]; [20]
  pest or weed control at 125 g/ha: 90%
[7]; [21]
  pest or weed control at 16 g/ha: 0%
[7]; [22]
  pest or weed control at 31 g/ha: 0%
[7]; [23]
  pest or weed control at 125 g/ha: 85%
[7]; pre-emergence, Preemergence
  pest or weed control at 62 g/ha: 95%
[8]; post-emergence, Postemergence
  pest or weed control at 16 g/ha: 95%
  pest or weed control at 31 g/ha: 95%
  pest or weed control at 125 g/ha: 95%
[8]; [24]
  pest or weed control at 62 g/ha: 95%
[8]; pre-emergence, Preemergence
  pest or weed control at 16 g/ha: 98%
  pest or weed control at 31 g/ha: 100%
  pest or weed control at 125 g/ha: 100%
  pest or weed control at 62 g/ha: 100%
[9]; 16 g ai/ha Preemergence
  pest or weed control at 16 g/ha: 80%
[9]; 31 g ai/ha Preemergence
  pest or weed control at 31 g/ha: 100%
[9]; 62 g ai/ha Preemergence
  pest or weed control at 62 g/ha: 100%
[9]; 125 g ai/ha Preemergence
  pest or weed control at 125 g/ha: 100%
[10]; [17]
  pest or weed control at 16 g/ha: 70%
[10]; [18]
  pest or weed control at 31 g/ha: 60%
[10]; [19]
  pest or weed control at 62 g/ha: 70%
[10]; [20]
  pest or weed control at 125 g/ha: 75%
[10]; [21]
  pest or weed control at 16 g/ha: 0%
[10]; [22]
  pest or weed control at 31 g/ha: 0%
[10]; [25]
  pest or weed control at 62 g/ha: 0%
[10]; [23]
  pest or weed control at 125 g/ha: 0%
[11]; [17]
  pest or weed control at 16 g/ha: 10%
[11]; [18]
  pest or weed control at 31 g/ha: 30%
[11]; [19]
  pest or weed control at 62 g/ha: 50%
[11]; [20]
  pest or weed control at 125 g/ha: 75%
[11]; [21]
  pest or weed control at 16 g/ha: 0%
[11]; [22]
  pest or weed control at 31 g/ha: 20%
[11]; [25]
  pest or weed control at 62 g/ha: 70%
[11]; [23]
  pest or weed control at 125 g/ha: 100%
[12]; 16 g ai/ha Preemergence
  pest or weed control at 16 g/ha: 98%
[12]; 31 g ai/ha Preemergence
  pest or weed control at 31 g/ha: 98%
[12]; 125 g ai/ha Preemergence
  pest or weed control at 125 g/ha: 100%
[12]; Preemergence
  pest or weed control at 62 g/ha: 100%
[13]; post-emergence, Postemergence
  pest or weed control at 16 g/ha: 10%
  pest or weed control at 31 g/ha: 20%
  pest or weed control at 125 g/ha: 40%
[13]; [24]
  pest or weed control at 62 g/ha: 20%
[13]; pre-emergence, Preemergence
  pest or weed control at 16 g/ha: 0%
  pest or weed control at 31 g/ha: 0%
  pest or weed control at 125 g/ha: 100%
  pest or weed control at 62 g/ha: 40%
[14]; 16 g ai/ha Preemergence
  pest or weed control at 16 g/ha: 0%
[14]; 31 g ai/ha Preemergence
  pest or weed control at 31 g/ha: 75%
[14]; 125 g ai/ha Preemergence
  pest or weed control at 125 g/ha: 80%
[14]; Preemergence
  pest or weed control at 62 g/ha: 75%
[15]; [17]
  pest or weed control at 16 g/ha: 100%
[15]; [18]
  pest or weed control at 31 g/ha: 100%
[15]; [19]
  pest or weed control at 62 g/ha: 100%
[15]; [20]
  pest or weed control at 125 g/ha: 100%
[15]; [21]
  pest or weed control at 16 g/ha: 95%
[15]; [22]
  pest or weed control at 31 g/ha: 100%
[15]; [25]
  pest or weed control at 62 g/ha: 100%
[15]; [23]
  pest or weed control at 125 g/ha: 100%
[16]; 16 g ai/ha Postemergence
  Plant response rating, Horseweed: 0
[16]; 31 g ai/ha Postemergence
  Plant response rating, Horseweed: 0
[16]; 62 g ai/ha Postemergence
  Plant response rating, Horseweed: 10
[16]; 125 g ai/ha Postemergence
  Plant response rating, Horseweed: 25
